In PubChem BioAssay (NCI):
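Briefly, cells in 96-well plates were exposed to five compound concentrations for 48 h, and endpoints were estimated by linear interpolation. TGI denotes the concentration required for complete inhibition of growth.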

Key:
Test in all cases: growth of human tumour cells (NCI), 48 h
[1] = system: HL-60(TB) leukemia
[2] = system: HCT-116 colon
[3] = system: HOP-92 NSCLC
[4] = system: SF-295 CNS
[5] = system: UACC-257 melanoma
[6] = system: HOP-62 NSCLC
[7] = system: CCRF-CEM leukemia
[8] = system: K-562 leukemia
[9] = system: RXF 393 renal
[10] = system: DU-145 prostate
[11] = system: UO-31 renal
[12] = system: SN12C renal
[13] = system: NCI-H460 lung
[14] = system: ACHN renal
[15] = system: SNB-19 CNS
[16] = system: OVCAR-3 ovarian
[17] = system: KM12 colon
[18] = system: HS 578T breast
[19] = system: M14 melanoma
[20] = system: PC-3 prostate
[21] = system: COLO 205 colon
[22] = system: OVCAR-8 ovarian
[23] = system: TK-10 renal
[24] = system: OVCAR-4 ovarian
[25] = system: NCI/ADR-RES ovarian
[26] = system: SK-MEL-5 melanoma
[27] = system: U251 CNS
[28] = system: MALME-3M melanoma
[29] = system: SF-268 CNS
[30] = system: HCC-2998 colon
[31] = system: SW-620 colon
[32] = system: RPMI-8226 leukemia
[33] = system: SK-MEL-28 melanoma
[34] = system: MCF7 breast
[35] = system: A498 renal
[36] = system: BT-549 breast
[37] = system: EKVX NSCLC
[38] = system: SR leukemia
[39] = system: 786-0 renal
[40] = system: MDA-MB-435
[41] = system: NCI-H226 lung
[42] = system: HCT-15 colon
[43] = system: A549 NSCLC
[44] = system: OVCAR-5 ovarian
[45] = system: MDA-N
[46] = system: SF-539 CNS
[47] = system: MDA-MB-231 breast
[48] = system: IGROV1 ovarian
[49] = system: SNB-75 CNS
[50] = system: LOX IMVI melanoma
[51] = system: MOLT-4 leukemia
[52] = system: T-47D breast
[53] = system: UACC-62 melanoma
[54] = system: SK-MEL-2 melanoma
[55] = system: NCI-H23 lung
[56] = system: SK-OV-3 ovarian
[57] = system: CAKI-1 renal
[58] = system: NCI-H522 lung
[59] = system: HT29 colon

With `CC(=O)Nc1cc(Nc2cc(=O)[nH]c(=O)[nH]2)ccc1C` the TGI [1] was over 100 µM, the TGI [2] was over 100 µM and the TGI [3] was over 100 µM. For the same compound, the TGI [4] was over 100 µM, the TGI [5] was over 100 µM and the TGI [6] was over 100 µM. It also gave a TGI [7] of over 100 µM, a TGI [8] of over 100 µM and a TGI [9] of over 100 µM. The TGI [10] was over 100 µM, the TGI [11] was over 100 µM and the TGI [12] was over 100 µM. It also gave a TGI [13] of over 100 µM, a TGI [14] of over 100 µM and a TGI [15] of over 100 µM. For the same compound, the TGI [16] was over 100 µM, the TGI [17] was over 100 µM and the TGI [18] was over 100 µM. It also gave a TGI [19] of over 100 µM, a TGI [20] of over 100 µM and a TGI [21] of over 100 µM. It also gave a TGI [22] of over 100 µM, a TGI [23] of over 100 µM and a TGI [24] of over 100 µM. For the same compound, the TGI [25] was over 100 µM, the TGI [26] was over 100 µM and the TGI [27] was over 100 µM. The TGI [28] was over 100 µM, the TGI [29] was over 100 µM and the TGI [30] was over 100 µM. It also gave a TGI [31] of over 100 µM, a TGI [32] of over 100 µM and a TGI [33] of over 100 µM. The TGI [34] was over 100 µM, the TGI [35] was over 100 µM and the TGI [36] was over 100 µM. The TGI [37] was over 100 µM, the TGI [38] was over 100 µM and the TGI [39] was over 100 µM. The TGI [40] was over 100 µM, the TGI [41] was over 100 µM and the TGI [42] was over 100 µM. For the same compound, the TGI [43] was over 100 µM, the TGI [44] was over 100 µM and the TGI [45] was over 100 µM. For the same compound, the TGI [46] was over 100 µM, the TGI [47] was over 100 µM and the TGI [48] was over 100 µM. For the same compound, the TGI [49] was over 100 µM and the TGI [50] was over 100 µM.
Work on `NC(=O)Cc1nc2c(=O)[nH]cnc2n1C1OC(CO)C(O)C1O` (stereo unspecified) yielded a TGI [1] of over 100 µM, a TGI [51] of over 100 µM and a TGI [2] of over 100 µM. It also gave a TGI [52] of over 100 µM, a TGI [3] of over 100 µM and a TGI [4] of over 100 µM. For the same compound, the TGI [5] was over 100 µM, the TGI [6] was over 100 µM and the TGI [7] was over 100 µM. The TGI [8] was over 100 µM, the TGI [9] was over 100 µM and the TGI [10] was over 100 µM. It also gave a TGI [11] of over 100 µM, a TGI [12] of over 100 µM and a TGI [13] of over 100 µM. For the same compound, the TGI [14] was over 100 µM, the TGI [15] was over 100 µM and the TGI [16] was over 100 µM. It also gave a TGI [17] of over 100 µM, a TGI [18] of over 100 µM and a TGI [19] of over 100 µM. The TGI [20] was over 100 µM, the TGI [53] was over 100 µM and the TGI [21] was over 100 µM. For the same compound, the TGI [22] was over 100 µM, the TGI [54] was over 100 µM and the TGI [55] was over 100 µM. It also gave a TGI [23] of over 100 µM, a TGI [56] of over 100 µM and a TGI [24] of over 100 µM. It also gave a TGI [25] of over 100 µM, a TGI [26] of over 100 µM and a TGI [27] of over 100 µM. For the same compound, the TGI [28] was over 100 µM, the TGI [29] was over 100 µM and the TGI [30] was over 100 µM. For the same compound, the TGI [31] was over 100 µM, the TGI [32] was over 100 µM and the TGI [33] was over 100 µM. The TGI [34] was over 100 µM, the TGI [35] was over 100 µM and the TGI [57] was over 100 µM. The TGI [36] was over 100 µM, the TGI [37] was over 100 µM and the TGI [39] was over 100 µM. For the same compound, the TGI [40] was over 100 µM, the TGI [41] was over 100 µM and the TGI [42] was over 100 µM. It also gave a TGI [43] of over 100 µM, a TGI [44] of over 100 µM and a TGI [45] of over 100 µM. It also gave a TGI [58] of over 100 µM, a TGI [59] of over 100 µM and a TGI [46] of over 100 µM. For the same compound, the TGI [47] was over 100 µM, the TGI [48] was over 100 µM and the TGI [49] was over 100 µM. It also gave a TGI [50] of over 100 µM.
For `O=[N+]([O-])c1ccc(C(Nc2ccccc2)c2ccc3cccnc3c2O)cc1` (stereo unspecified), the TGI [1] was 13.4 µM, the TGI [2] was over 75.3 µM and the TGI [52] was 44.4 µM. For the same compound, the TGI [3] was 72.9 µM, the TGI [4] was over 100 µM and the TGI [5] was 42.8 µM. The TGI [6] was over 100 µM, the TGI [7] was over 22.2 µM and the TGI [8] was over 57.4 µM. For the same compound, the TGI [9] was 24.6 µM, the TGI [10] was over 100 µM and the TGI [11] was 32.3 µM. The TGI [12] was over 56.2 µM, the TGI [13] was over 60.6 µM and the TGI [14] was over 100 µM. It also gave a TGI [15] of over 100 µM, a TGI [16] of 33.6 µM and a TGI [17] of over 100 µM. It also gave a TGI [18] of over 71.7 µM, a TGI [19] of over 74.4 µM and a TGI [20] of over 87.2 µM. The TGI [53] was 35.8 µM, the TGI [21] was 45.6 µM and the TGI [22] was 52.3 µM. The TGI [54] was over 100 µM, the TGI [55] was over 100 µM and the TGI [23] was 68.8 µM. For the same compound, the TGI [56] was over 100 µM, the TGI [24] was 47.7 µM and the TGI [25] was over 69.3 µM. It also gave a TGI [26] of 22.3 µM, a TGI [27] of 25.2 µM and a TGI [28] of over 65.2 µM. The TGI [29] was over 52.7 µM, the TGI [30] was 97.7 µM and the TGI [31] was over 100 µM. For the same compound, the TGI [32] was 38.5 µM, the TGI [33] was over 100 µM and the TGI [34] was over 75.6 µM. The TGI [35] was over 100 µM, the TGI [57] was over 62.3 µM and the TGI [36] was over 70.3 µM. It also gave a TGI [37] of over 54.6 µM, a TGI [39] of 26.1 µM and a TGI [40] of over 78 µM. For the same compound, the TGI [41] was over 27.7 µM, the TGI [42] was over 100 µM and the TGI [43] was over 100 µM. The TGI [44] was over 100 µM, the TGI [45] was over 100 µM and the TGI [58] was 28.6 µM. The TGI [59] was over 100 µM, the TGI [46] was 21.1 µM and the TGI [47] was 59.9 µM. It also gave a TGI [48] of over 100 µM, a TGI [49] of 55.5 µM and a TGI [50] of 61 µM.
`COC(=O)CCCC(=O)NC1=C(NCc2ccccc2)C(=O)c2ccccc2C1=O` gave a TGI [1] of 77.3 µM, a TGI [51] of over 100 µM and a TGI [2] of over 100 µM. It also gave a TGI [52] of over 100 µM, a TGI [5] of 89.7 µM and a TGI [7] of over 100 µM. It also gave a TGI [8] of over 100 µM, a TGI [10] of over 100 µM and a TGI [11] of over 100 µM. It also gave a TGI [12] of over 100 µM, a TGI [13] of over 100 µM and a TGI [14] of over 100 µM. For the same compound, the TGI [15] was over 100 µM, the TGI [16] was 90.6 µM and the TGI [17] was over 100 µM. For the same compound, the TGI [18] was over 100 µM, the TGI [19] was over 100 µM and the TGI [53] was over 100 µM. The TGI [21] was over 100 µM, the TGI [22] was over 100 µM and the TGI [54] was over 100 µM. The TGI [55] was over 100 µM, the TGI [23] was over 100 µM and the TGI [56] was over 100 µM. For the same compound, the TGI [24] was over 100 µM, the TGI [25] was over 100 µM and the TGI [27] was over 100 µM. It also gave a TGI [28] of 37.7 µM, a TGI [29] of over 100 µM and a TGI [30] of over 100 µM. The TGI [31] was over 100 µM, the TGI [32] was over 100 µM and the TGI [33] was over 100 µM. The TGI [34] was over 100 µM, the TGI [35] was over 100 µM and the TGI [57] was over 100 µM. The TGI [36] was 93.8 µM, the TGI [37] was over 100 µM and the TGI [38] was over 100 µM. For the same compound, the TGI [39] was over 100 µM, the TGI [40] was over 100 µM and the TGI [42] was over 100 µM. It also gave a TGI [43] of over 100 µM, a TGI [44] of over 100 µM and a TGI [45] of over 100 µM. For the same compound, the TGI [58] was over 100 µM, the TGI [46] was over 100 µM and the TGI [47] was over 100 µM. For the same compound, the TGI [48] was over 100 µM, the TGI [49] was over 100 µM and the TGI [50] was over 100 µM.
